Measured values reported in publication PMC12844237, “A Novel Quinolone JH62 (E-2-(Tridec-4-en-1-yl)-quinolin-4(1H)-one) from Pseudomonas aeruginosa Exhibits Potent Anticancer Activity” (Microorganisms, 2025).
Where two headings read alike, the source gives them in different places.

Experiments:
[1] = test system: A549 cells; conditions: cited from earlier work
[2] = test system: WI-38: human lung fibroblast cell lines; assay: WST-1 cell viability, WI-38; type: cell-based; conditions: WI-38, non-cancer cell line
Excerpt: (§1) Different cells were utilized as follows: MEF: murine embryonic fibroblast (RRID: CVCL_L690); AML12: mouse liver cell lines (RRID: CVCL_0140); WI-38: human lung fibroblast cell lines (RRID: CVCL_0579); THLE-2: human liver epithelial cell lines (RRID: CVCL_3803); A549: human lung cancer cell lines (RRID: CVCL_0023); HEPG2: human liver cancer cell lines (RRID: CVCL_0027); HEP3B: human hepatoma cell lines (RRID: CVCL_0326); BxPC3: human pancreatic cancer cell lines (RRID: CVCL_0186); U87: human primary glioblastoma cell lines (RRID: CVCL_0022); DU145: human prostate cancer cell lines (RRID: CVCL_0105); MCF7: human breast cancer cell lines (RRID: CVCL_0031); HeLa: human cervical cancer cell lines (RRID: CVCL_0030); HCT116: human colon cancer cell lines (RRID: CVCL_0291). Cells were maintained in Dulbecco’s modified Eagle’s medium (DMEM, Gibco) supplemented with L-glutamine (Lonza) (2 mM), 10% fetal bovine serum (FBS, Hyclone), 1 × non-essential amino acids, and sodium pyruvate (1 mM). THLE-2 cells were maintained in THLE-2 Cell Complete Medium (Zhong Qiao Xin Zhou, Shanghai, China). Cells were incubated at 37 °C in a humidified incubator with 5% CO2. […]
(§2) Cell viability was assessed using the WST-1 assay, based on a previously reported method with slight modifications. […] Absorbance at OD450 was measured using a microplate reader (Synergy H1; BioTek Instruments, Winooski, VT, USA).

[3] = test system: AML12: mouse liver cell lines; assay: WST-1 cell viability, AML12; type: cell-based; conditions: AML12, non-cancer cell line
Excerpt: as §1, §2

[4] = test system: A549 cells; assay: Comet assay; type: cell-based, human; conditions: A549, 1, 8, and 12 h
Method: Residual DNA damage was detected by alkaline single cell gel electrophoresis (Comet Assay) using the Trevigen Comet Assay Kit (Trevigen, Gaithersburg, MD, USA) following the manufacturer’s protocol with slight modifications. […] The treated cells were trypsinized and pelleted by centrifugation. The cell pellets were washed and resuspended in 2 mL of ice-cold PBS. The cell suspension was mixed 1:10 (vol/vol) with low-melting point agar at 42 °C and immediately pipetted onto a CometSlide™. Slides were incubated at 4 °C in the dark for 30 min, immersed in chilled lysis solution and incubated again at 4 °C for 30 min. Slides were placed in a horizontal electrophoresis chamber and electrophoresed with buffer NaOH (0.3 M) and EDTA (1 mM) at 1 V/cm for 15 min. Samples were dried and stained with Vista Green DNA dye (Cell Biolabs, Singapore). Comet tails were imaged using a model DM 2500 fluorescent microscope (Leica, Wetzlar, Germany) and quantified by Komet 5.5 software (Andor Technology, Belfast, UK). A minimum of 50 cells were scored per treatment. All experiments were performed independently in triplicate.

[5] = test system: HCT116: human colon cancer cell lines; assay: WST-1 cell viability, HCT116; type: cell-based; conditions: HCT-116, HCT116 (colon) cancer cell line
Excerpt: as §1, §2

[6] = test system: A549: human lung cancer cell lines; assay: WST-1 cell viability, A549; type: cell-based; conditions: Homo sapiens, A549, A549 (lung) cancer cell line, WST-1
Excerpt: Different cells were utilized as follows: MEF: murine embryonic fibroblast (RRID: CVCL_L690); AML12: mouse liver cell lines (RRID: CVCL_0140); WI-38: human lung fibroblast cell lines (RRID: CVCL_0579); THLE-2: human liver epithelial cell lines (RRID: CVCL_3803); A549: human lung cancer cell lines (RRID: CVCL_0023); HEPG2: human liver cancer cell lines (RRID: CVCL_0027); HEP3B: human hepatoma cell lines (RRID: CVCL_0326); BxPC3: human pancreatic cancer cell lines (RRID: CVCL_0186); U87: human primary glioblastoma cell lines (RRID: CVCL_0022); DU145: human prostate cancer cell lines (RRID: CVCL_0105); MCF7: human breast cancer cell lines (RRID: CVCL_0031); HeLa: human cervical cancer cell lines (RRID: CVCL_0030); HCT116: human colon cancer cell lines (RRID: CVCL_0291). Cells were maintained in Dulbecco’s modified Eagle’s medium (DMEM, Gibco) supplemented with L-glutamine (Lonza) (2 mM), 10% fetal bovine serum (FBS, Hyclone), 1 × non-essential amino acids, and sodium pyruvate (1 mM). THLE-2 cells were maintained in THLE-2 Cell Complete Medium (Zhong Qiao Xin Zhou, Shanghai, China). Cells were incubated at 37 °C in a humidified incubator with 5% CO2. A549 cells were previously stored in the lab and other cell lines were a gift from Haishan Wang’s lab (Institute of Molecular and Cell Biology, Singapore). All cell lines were confirmed to be contamination-free.
(§3) Cell viability was assessed using the WST-1 assay, based on a previously reported method with slight modifications. Briefly, cells were seeded at 1 × 10^4 cells per well in 96-well plates and then treated with different doses of JH62 or DOX for 0–72 h. The cells used included non-cancer cells (MEF, AML12, WI-38, and THLE-2) and cancer cells (A549, HEPG2, HEP3B, BxPC3, U87, DU145, MCF7, HeLa, and HCT116). The WST-1 reagent (Roche, Shanghai, China) was added to each well (10% vol/vol final concentration), followed by incubation for 3 h at 37 °C. Absorbance at OD450 was measured using a microplate reader (Synergy H1; BioTek Instruments, Winooski, VT, USA).

[7] = test system: THLE-2: human liver epithelial cell lines; assay: WST-1 cell viability, THLE-2; type: cell-based; conditions: THLE-2, non-cancer cell line
Excerpt: as §1, §2

[8] = test system: BxPC3: human pancreatic cancer cell lines; assay: WST-1 cell viability, BxPC3; type: cell-based; conditions: BXPC-3, BxPC3 (pancreatic) cancer cell line
Excerpt: as §1, §2

[9] = test system: non-cancer cells (MEF, AML12, WI-38, and THLE-2); assay: WST-1 cell viability, panel of non-cancer cells; type: cell-based; conditions: across non-cancer cells (MEF, AML12, WI-38, and THLE-2)
Method: as §3

[10] = test system: A549 cells; assay: DNA fragmentation analysis (genomic DNA electrophoresis); type: cell-based, human; conditions: A549, 24 h; JH62 5–100 µM, DOX 1 and 5 μM
Method: Genomic DNA fragmentation was analyzed by agarose gel electrophoresis using previously described methods. A549 cells were seeded in 6 cm tissue culture dishes and cultured overnight. Before treatment with JH62 or DOX, the cells were cultured in DMEM lacking FBS for 16 h. After treatment, the cells were then washed three times with PBS and genomic DNA was extracted using a MasterPure™ DNA Purification Kit (Lucigen Corporation, Middleton, WI, USA). The DNA pellet was airdried and resuspended in Tris-HCl (pH 8.0, 10 mM). DNA samples (2.5 μg) were separated by 1% agarose gel electrophoresis in TAE buffer containing ethidium bromide.

[11] = test system: HEP3B: human hepatoma cell lines; assay: WST-1 cell viability, HEP3B; type: cell-based; conditions: HEP3B (liver) cancer cell line
Excerpt: as §1, §2

[12] = test system: MEF: murine embryonic fibroblast; assay: WST-1 cell viability, MEF; type: cell-based; conditions: Mus musculus, non-cancer cell line
Excerpt: as §1, §2

[13] = test system: HeLa: human cervical cancer cell lines; assay: WST-1 cell viability, HeLa; type: cell-based; conditions: HeLa (cervical) cancer cell line
Excerpt: as §1, §2

[14] = test system: HEPG2: human liver cancer cell lines; assay: WST-1 cell viability, HEPG2; type: cell-based; conditions: HEPG2 (liver) cancer cell line
Excerpt: as §1, §2

[15] = test system: A549 cells; assay: Chromosome staining experiment; type: cell-based, human; conditions: A549, 5 μM DOX or 25 μM JH62 for 6 h
Method: Metaphase chromosome spreads were prepared from A549 cells. Briefly, A549 cells were cultured. After treatment with JH62 or DOX, cells were incubated with Colcemid (Gibco BRL; 0.2 μg/mL final concentration) for 2 h to arrest cells in metaphase. Cells were then subjected to hypotonic treatment in KCl (0.075 M) at 37 °C for 5 min, and fixed by repeated washing with ice-cold freshly prepared 3:1 (vol/vol) methanol:acetic acid. Chromosome spreads were prepared on premarked glass slides using the “drop-cryo” protocol. The chromosome suspension was dropped onto a slide. This was followed by adding three drops of 45% acetic acid and placing a coverslip over the suspension. The slide was then inverted and placed on dry ice for 15 min. The spreads were postfixed in 2.5% glutaraldehyde in cacodylate buffer (pH 7.4, 75 mM) for 15 min and washed with cacodylate buffer (0.1 M). The chromosomes were stained with Vista Green DNA dye (Cell Biolabs, Singapore). After staining, the preparations were washed in water for 5, 10, and 15 min, then dehydrated using a series of ethanol solutions as follows: 5 min in a 70% solution, 10 min in an 85% solution, and 15 min in 100% ethanol. Finally, slides were mounted with a permanent mounting medium, sealed, and analyzed by microscopy.

[16] = test system: DU145: human prostate cancer cell lines; assay: WST-1 cell viability, DU145; type: cell-based; conditions: DU-145, DU145 (prostate) cancer cell line
Excerpt: as §1, §2

[17] = test system: cancer cell lines; assay: WST-1 cell viability, panel of cancer cell lines; type: cell-based; conditions: Homo sapiens; across the tested cancer cell lines
Method: as §3

[18] = test system: MCF7: human breast cancer cell lines; assay: WST-1 cell viability, MCF7; type: cell-based; conditions: MCF7 (breast) cancer cell line
Excerpt: as §1, §2

[19] = test system: U87: human primary glioblastoma cell lines; assay: WST-1 cell viability, U87; type: cell-based; conditions: U87 (glioblastoma) cancer cell line
Excerpt: as §1, §2

[20] = test system: both non-cancer and cancer cells; assay: WST-1 cell viability, non-cancer and cancer cells together; type: cell-based; conditions: against both non-cancer and cancer cells
Method: Cell viability was assessed using the WST-1 assay, based on a previously reported method with slight modifications [54]. […] The cells used included non-cancer cells (MEF, AML12, WI-38, and THLE-2) and cancer cells (A549, HEPG2, HEP3B, BxPC3, U87, DU145, MCF7, HeLa, and HCT116). The WST-1 reagent (Roche, Shanghai, China) was added to each well (10% vol/vol final concentration), followed by incubation for 3 h at 37 °C. Absorbance at OD450 was measured using a microplate reader (Synergy H1; BioTek Instruments, Winooski, VT, USA).

[21] = test system: HeLa; set-up: method as in PMID 8823519; conditions: HeLa ref 87; cited from earlier work
[22] = clinically successful drugs; cited from earlier work

In the case of Oc1cccc2cccnc12 [8-hydroxyquinoline], the IC50 ([1]; A549 ref 85) is listed as 26000 nM.
For COc1cccc2c1C(=O)c1c(O)c3c(c(O)c1C2=O)C[C@@](O)(C(=O)CO)C[C@@H]3O[C@H]1C[C@H](N)[C@H](O)[C@H](C)O1 [DOX, Doxorubicin, reference compound], the IC50 [2] was 1900 ± 300 nM, the IC50 [3] was 5100 ± 1300 nM and the comet tail analysis [4] was “distinct and typical comet tail”. It also gave an IC50 [5] of 3900 ± 700 nM, an IC50 [6] of 2100 ± 500 nM and an IC50 [7] of 1200 ± 100 nM. For the same molecule, the IC50 [8] was 1900 ± 100 nM, the IC50 [9] was 1200 to 5100 nM and the “genomic DNA integrity (electrophoresis)” value [10] was “obvious DNA fragmentation”. For the same molecule, the IC50 [11] was 3300 ± 200 nM, the IC50 [12] was 3900 ± 400 nM and the IC50 [13] was 700 ± 700 nM. For the same molecule, the IC50 [14] was 800 ± 100 nM, the chromosome morphology [15] was “fragmented and adhered together” and the IC50 [16] was 1900 ± 200 nM. It also gave an IC50 [17] of 700 to 3900 nM, an IC50 [18] of 1200 ± 500 nM and an IC50 [19] of 1400 ± 1000 nM. It also gave an IC50 [20] of 500 to 5000 nM.
For CCCCCC/C=C/Cc1c(C)c(=O)c2ccccc2n1O [E-1-hydroxy-2-(non-2-enyl)-3-methyl-4-quinolone], the IC50 [21] is listed as 1900 nM.
In the case of CCCCCCCc1[nH]c2ccccc2c(=O)c1O [PQS, 2-heptyl-3-hydroxy-4(1H)-quinolone], the IC50 ([1]; A549 cells ref 82,83) is listed as 19000 nM.
In the case of O=C1NC(=O)C(c2ccccc2)(c2ccccc2)N1 [phenytoin], the PPB [22] is given as “exceeding 98%”.
